pIC50: −log10 of the molar value. Entries after “also recorded” stand apart in the source; their conditions may differ.
Assays:
[1] = test system: rabbit plasma; test: Blood coagulation time (APTT, PT); parameters: species or system rabbit (male, Japanese white); conditions: for PT / APTT: N=4, mean ± S.E.; for PT: control 7.3 ± 0.4; for APTT: control 16.9 ± 0.8
Procedure: a) Blood coagulation time:
Rabbits (male, Japanese white, body weight 2-3 kg, Oriental Yeast Co.) were used. […] After adding the test compound to the resultant plasma, activated partial thromboplastin time (APTT) and prothrombin time (PT) were measured by using a coagulometer (Coagtec, Coagtec TE600, EMRA; KC-10A, Baxter).

[2] = test system: Env (gp120) protein, HIV-1 infected MOLT-4 cells; test: Suppressive action on expression of Env (gp120) protein on the surface of cells; format: cell-based; conditions: FIG. 3; Env positive cells after 5 days
Procedure: (Suppressive action on expression of Env (gp120) protein on the surface of cells.)
Cells obtained by culturing MOLT-4 (culture condition: 37° C., 5% CO2 /95% air, RPMI medium (GIBCO Corp.) containing 10% FBS) were adjusted to a preferable number of cells (1×10^5 cells/50 μl ). The cell suspension, 50 μl, (infected with MOLT-4 and HIV-1: M.O.I.=1.0) was put in a 96 hole microplate and cultured for 1 hour to infect the cells.
A solution of the compound shown below, 100 μl, was added in each well and cultured for 5 days. The cultured solution was transferred into a plastic tube (Eppendorf Corp.) and centrifuged to collect the cells. The cells were treated with mouse anti-Env gp120 monoclonal antibody (Replingen Inc.) as a primary antibody and FITC (Fluorescein Isothiocyanate) labelled goat anti-mouse IgG (Cappel Corp.) as a secondary antibody to fluoresce. The number of fluorescent cells was fluoroscopically calculated by counting fluorescent cells according to an indirect fluorescent antibody technique (Techniques in HIV Research, Ed. A. Aldoriny and B. D. Walker, Stokton Press, New York, 1990).
Env positive cells (%) was calculated by the following equation:
Env positive cells (%)=(FITC) positive cells/total cells)×100
Compounds: FAS, H-7 and KN-62.
Control: solution without compound was used.

[3] = test system: HIV-1 p24 gag protein, HIV-1 infected MOLT-4 cells; test: Suppressive action of HIV production (p24 gag protein in culture supernatant, ELISA); format: cell-based; conditions: FIG. 4; 5 days; hydrochloride
Procedure: Suppressive action of HIV production (extracellular release from cells). Cells obtained by culturing MOLT-4 (culture condition: 37° C., 5% CO2 /95% air. RPMI medium (GIBCO Corp.) containing 10% FBS) were adjusted to a preferable number of cells (1×10^5 cells/50 μl). The cell suspension, 50 μl, (infection with MOLT-4 and HIV-1: M.O.I.=1.0) were put in a 96 hole microplate and cultured for 1 hour to infect the cells. A solution of the compounds shown below, 100 μl, was added in each well and cultured for 5 days. The cultured solution was transferred into a plastic tube (Eppendorf Corp.) and centrifuged. The amount of p24 gag protein in the cultured supernatant medium wa assayed by using an Abbott kit (ELISA: Dinabot Co.). FAS, H-7 and KN-62 were used as the compound, and a solution without the compound was used as a control.

[4] = Acute toxicity in mice; parameters: species or system mouse (Slc: ddy, 5 weeks); conditions: mouse, in vivo, iv, i. v., male
Procedure: Acute toxicity of the compounds of the present invention were conducted on rats and mice, and low toxicity was confirmed.

[5] = test system: HIV-1; test: Comparison of suppressive activity of HIV proliferation with FAS and other anti-HIV drugs (syncytium formation); format: cell-based
Procedure: Comparison of suppressive activity of HIV proliferation with FAS and other anti-HIV drugs.
Experiments were conducted by the same method as in Example 3.
The medicaments used in this experiment were compounds of the present invention (FAS, and a compound of formula [I] where R^1 is hydroxy as in the above-mentioned Japanese Patent Unexamined Publication No. 61-152658), ddI (Sigma Corp.) and AZT (Sigma Corp.) which are used as medicaments for the treatment of AIDS, and dextran sulfate (Sigma Corp.).

[6] = test system: myosin light chain kinase; conditions: Cranial Nerve, 45 (9), 819-824, 1993; cited from earlier work
[7] = test system: Herpes simplex virus type I; test: Inhibitory action for plaque formation of Herpes simplex virus type I; format: cell-based; conditions: mean of two, control 51
Procedure: Experiments were performed according to a method described in Antiviral Chemistry and Chemotherapy, 5 (6), 366-371, 1994 and Experimental Virology, Ed. by NIH Japan alumni assoc., Maruzen Publ. 1982, p. 65-78 or p. 331-340.
Vero cells cultured in the medium (Dulbecco's modified MEM added with 10% FBS) were detached by trypsin (Sigma Corp.). The detached cells were suspended by 2×10^5 cells/ml in the same medium, and placed in the wells of a 48 hole plate. The plate was incubated at 37° C. under 5% CO2 for about one day to complete a full-sheet of the cells in all wells. After incubation, cultured supernatant was removed. A solution (50 μl) containing the compound diluted with 4-fold stepwise dilution by virus culture medium (MM: Dulbecco's modified MEM added with 2% FBS), was added thereto.
A viral solution, 50 μl, in which the number of virus (parainfluenza virus or Herpes simplex virus type I) was adjusted to about 50 pfu (plaque forming unit)/50 μl by MM, was added to each well. MM 400 μl containing 1% methylcellulose was added in each well to provide a compound-added test group. A control group was prepared by adding the viral culture medium without adding the test compound.
The groups were incubated at 37° C. under 5% CO2 for three days to form plaques and the number of plaques in each well was counted.
The test compounds were FAS, and the compound of formula [I] where R^1 is hydroxy. The final concentration of the compound in the solution was set to 100, 25, 6.3 and 1.6 μg/ml, respectively. Each test group included 2 wells and a mean of the plaque numbers was obtained.

SMILES: Cl.O=S(=O)(c1cccc2cnccc12)N1CCCNCC1 [FAS, hexahydro-1-(5-isoquinoline-sulfonyl)-1H-1,4-diazepine hydrochloride]
- effect on blood coagulation time (APTT, PT) [1]: no effect on blood coagulation time
- PT ([1]; 10 μM): 7.1 ± 0.6 s
- APTT ([1]; 10 μM): 16.4 ± 0.8 s
- PT ([1]; 30 μM): 7.1 ± 0.5 s
- APTT ([1]; 30 μM): 16.0 ± 0.8 s
- PT ([1]; 100 μM): 7.6 ± 0.9 s
- APTT ([1]; 100 μM): 16.3 ± 0.8 s
- inhibitory activity for Env expression [2]: strong inhibitory activity for Env expression
- p24 gag protein in the cultured supernatant medium / HIV-1 generation [3]: decreased p24 gag protein in the cultured supernatant medium and suppressed HIV-1 generation; also recorded: apparently stronger than that of H-7 (-.increment.-) and KN-62 (-.quadrature.-)
- LD50 [4]: 63.7 mg/kg
- inhibitory activity of syncytium formation of HIV-1 [5]: higher sensitivity than dextran sulfate, ddI and AZT
- pIC50 ([5]; Human immunodeficiency virus 1, FIG. 5, approximate, read-out: 50% inhibitory concentration, syncytium formation): ~6.10
- myosin light chain kinase inhibition [6]: myosin light chain kinase inhibition
- Plaque No. ([7]; 1.6 μg/ml): 51
- Plaque No. ([7]; 6.3 μg/ml): 46
- Plaque No. ([7]; 25 μg/ml): 49
- Plaque No. ([7]; 100 μg/ml): 0
